Reference: patent publication US12465618B2, “Compositions and methods for degenerative disc regeneration” (University Health Network, priority 2015, dated 2025)
Read-outs that look alike come from different tables or passages of the source.

Key:
rat NP cells [1] = assay: Western blotting of rat NP cells treated with IL-1β/TNFα with or without inhibitors or growth factors; type: cell-based
Method: (§1) After euthanasia, healthy rat lumbar/caudal spine IVDs, injured tail discs and bovine caudal IVD NPs were removed aseptically and the nucleus pulposus (NP) was removed separately and enzymatically digested according to methods established by the present inventors^16. Similarly, human degenerative disc NPs were enzymatically digested using Pronase (0.4%, 1 hr at 37° C.) followed by Collagenase II treatment (0.015%, O/N, 37° C.). The following day, the cells were filtered with a 70p cell strainer and cultured within a hypoxic incubator (NuAire, MN, USA) in 3.5% O2, 5% CO2, in Advanced Dulbecco's modified Eagle's medium (ADMEM) supplemented with 8% fetal bovine serum (FBS) and penicillin and streptomycin (100 U/mL). For treatments, the cells were either cultured in serum free ADMEM (no treatment controls) or treated with interleukin-1β (IL-1β, 10 ng/mL), tumor necrosis factor-alpha (TNFα, 50 ng/mL), connective tissue growth factor (CTGF, 10-100 ng/mL), Wnt-inducible soluble protein 2 (WISP2, 10-100 ng/mL) or transforming growth factor beta 1 (TGFβ1, 5-20 ng/mL) for various time points under hypoxic conditions.
(§2) Equal amounts of whole cell or tissue lysates prepared using RIPA lysis buffer were subjected to Western blotting as described earlier^18,19. Total lysates (30 μg) were resolved on 10% sodium dodecyl sulphate-polyacrylamide gels (SDS-PAGE) under reducing conditions and then proteins were electro-transferred onto polyvinyledendifluoride (PVDF) membranes (BioRad, CA). After blocking with 5% non-fat powdered milk in Tris-buffered saline (TBS, 0.1 M, pH=7.4), blots were incubated with rabbit or goat polyclonal/mouse monoclonal primary antibodies at 4° C. overnight. […] Blots were washed three times with TTBS for 15 minutes and protein bands were detected by the enhanced chemiluminescence method (BioRad, CA) on Kodak Hyperfilm.

[2] = test system: human degenerative disc NP cells; assay: Western blotting of human degenerative disc NP cells; type: cell-based; details: IL-1β and TNFα, Western blots, FIG. 2h
Method: as §1, §2

rat NP cells [3] = assay: ECM and cell adhesion molecule gene array, real time quantitative PCR; type: cell-based; details: 24 hrs, vs no treatment control
Method: To determine the effect of IL-1β and TNFα on ECM turnover, rat NP cells were treated with IL-1β alone or in combination with TNFα for 24 hrs and real time quantitative PCR was performed using the ECM and cell adhesion molecule gene arrays (includes 84 genes).
as §1
Total RNA from healthy and treated (IL-1β alone or in combination with TNFα) rat NP cells, were isolated using RNAeasy extraction kit (Cat #74134, Qiagen) and quantified using a Nanodrop spectrophotometer. Total RNA (˜400 ng) was reverse-transcribed using RT^2 First Strand Kit (Cat #330401, Qiagen) following the manufacturer's instructions for preparing cDNA. To evaluate the effect of IL-1β alone or in combination with TNFα on extra-cellular matrix (ECM) genes in rat NP cells, the RT^2 Profiler™ PCR Array Rat Extracellular Matrix & Adhesion Molecules (PARN-013Z, Qiagen) was used and compared with no treatment controls (NTC) in 3 independent experiments using real time PCR performed on ABI 7900HT 384-well Fast block machine. Data analysis including calculation of ΔΔCt values, fold changes and p-values was carried out using software available online (https://www.qiagen.com/ca). Total RNA was isolated from human degenerative disc NP cells (H1/H2) treated with CTGF, TGFβ1, CTGF+TGFβ1 to evaluate their effect on collagen 2, HAPLN1, versican and thrombospondin 1 using gene specific primers. Similarly, RNA was isolated from human NP cells were treated with […] alone or in combination TNFα in presence of CTGF and TGFβ1 to determine their effect on Cox2 and MMP-13 expression using qRT-PCR.

[4] = test system: rat-tail injured disc NPs; assay: Pre-clinical rodent needle puncture disc injury model of DDD, intra-discal injection; type: in vivo, Wistar rat
Method: 12-week old female Wistar rats (Charles River Laboratories International, Inc., MA, USA) were used in order to develop a pre-clinical rodent model of DDD and to evaluate the therapeutic potential of NCCM, CTGF and TGFβ1 in these pre-clinical rodent models. Experiments were performed in accordance with the Guide for the Care and Use of Laboratory Animals, and the experimental protocols were approved by the ethics approval board of Toronto Western Hospital, Toronto, ON, Canada. The surgical procedure was as follows: Anesthesia was achieved using isofluorane (5 L/min plus 1 L/min O2) and maintained at 3 L/min. Once deeply anaesthetized, the animal was affixed on a stereotactic procedure apparatus (Model 900, Kopf Instruments California USA) with nose cone inhalation. For animal experiments, the tail was shaved and prepped with isopropanol in a sterile manner. Fluoroscopy was used to visualize needle penetration and to ensure that the needle penetrated into the center of the NP. For disc injury, a 26-gauge (G), 35° beveled, 0.75 inches high needle (Hamilton Company, USA) mounted on a Hamilton syringe was used. The needle was advanced completely through the selected tail IVD to penetrate the full thickness inclusive of the annulus fibrosus on both sides of the disc. Confirmation of needle placement was made using fluoroscopy and maintained in position for 2 minutes, withdrawn halfway to the center of the NP and left there for 1 minute and then slowly withdrawn completely over a 1-minute period. The animals were then removed from the stereotactic apparatus and allowed to recover in a warmed cage. At the end of study period i.e. 72 hrs-10 weeks, animals were humanely euthanized using CO2 and each vertebral lumbar/caudal motion segment was dissected aseptically. IVDs were either fixed in formalin for histological analysis or the nucleus pulposus (healthy/injured) was harvested and lysed in RIPA buffer (50 mM Tris, pH=7.4, 150 mM NaCl, 1% NP-40 and protease inhibitor cocktail) for western blotting.
To determine the regenerative potential of NCCM, CTGF or TGFβ1, 4 IVDs per animal of 12 week old rats were injured using a 26G needle as described above. Four weeks post-injury, animals were randomized into groups of six and an intra-discal injection (˜8 μL) of either NCCM, CTGF (100 ng/mL) or TGFβ1 (10 ng/mL) was given under local anesthesia. For NCCM injected animals, the control group consisted of animals that received an intra-discal injection (˜8 μL) of Hybridoma culture medium only, while phosphate buffered saline (PBS, 1×, pH=7.2) served as control for CTGF and TGFβ1 injected animal groups. Six weeks later, the NPs from injured and control discs were harvested and either fixed in formalin for histological analysis or lysed in RIPA lysis buffer for western blotting. Each of this experiment was repeated independently to ensure reproducibility.
The tissues were fixed in 10% formalin and decalcified in 10% EDTA solution. The decalcified disc was initially split in the mid sagittal plane, embedded in paraffin and 5p thick sections were obtained for histological evaluation. Hemaetoxylin and eosin (H&E) and Safranin-O staining was performed to assess general morphology and proteoglycan content in these tissue sections as previously described^16. For immunohistochemistry/immunofluorescence (IF), paraffin-embedded sections (5 μm) of human degenerative disc NP, bovine NP, healthy canines (NCD) and rat (healthy/injured) discs were deparaffinized in xylene, hydrated in gradient alcohol followed by antigen retrieval in Tris-EDTA buffer (pH=9.0). The sections were incubated with hydrogen peroxide (0.3% v/v) in methanol for 15 minutes to quench the endogenous peroxidase activity, followed by blocking with 10% serum to preclude non-specific binding. Thereafter, the slides were incubated with either rabbit or goat polyclonal/mouse monoclonal primary antibodies overnight (O/N) at 4° C. […]

[5] = test system: bovine degenerative disc NP cells; assay: MTT cell viability assay; type: cell-based; details: CTGF 100 ng/ml, TGFβ1 10 ng/ml, 48 hrs-72 hrs
Method: (§3) Nucleus pulposus cells (rat, bovine and human) were plated in 96-well flat bottom plates in order to evaluate the effect of treatment with growth factors in cell viability and proliferation assays. Rat NP cells were treated with CTGF, WISP-2 and TGFβ1 in a dose (1 ng/mL-100 ng/mL) and time dependent manner (24 hrs-96 hrs) to determine the optimum dose and time for the assessment of these growth factors on viability. Cell viability was determined using 3-(4,5-dimethylthiazol-2-yl)-2,5-diphenyltetrazolium bromide (MTT, Sigma-Aldrich, USA) as previously described^44. A BrdU-ELISA (colorimetric) assay (Cat #ab126556, Abcam) was used for determining the effect of treatment with CTGF or TGFβ1 on human and rat NP cells (healthy/injured) following the manufacturer's instructions. Briefly, NP cells were treated with CTGF or TGFβ1 alone or in combination for 48 hrs following addition of BrdU reagent O/N in each well. Incorporated BrdU in DNA of proliferating cells was determined using anti-BrdU antibody and quantified by ELISA as per the manufacturer's instructions.

[6] = test system: rat-tail disc NP cells (healthy/injured); assay: MTT cell viability assay; type: cell-based; details: CTGF 100 ng/ml, TGFβ1 10 ng/ml, 48 hrs-72 hrs
Method: as §3

[7] = test system: human degenerative disc NP cells; assay: Caspase 9 Lumi-Glo assay, cytokine induced; type: cell-based; details: 48 hrs
Method: Apoptosis induced in NP cells (rat and human) as result of treatment with pro-inflammatory cytokines (IL-1β and TNFα) was determined using Caspase 3/7 and Caspase 9 specific Lumi-Glo assays (Promega, Madison). Briefly, NP cells were plated and treated with either IL-1β alone or in combination with TNFα only or in presence of CTGF and TGFβ1 for 48 hrs, followed by addition of specific reagents for Caspase 3/7 and Caspase 9 as per the manufacturer's instructions. Cells were incubated for another 4 hrs at 37° C., and plates were read in a multi-well luminescence plate reader.

[8] = rat NP cells treated with IL-1β and TNFα, Western blot, FIG. 2f-2g
[9] = rat tail injured discs, western blots, FIG. 12(b)

Molecule: Cc1ccc(S(=O)(=O)/C=C/C#N)cc1 [BAY-11-7082]
- IL-1β and TNFα induced MMP-3, MMP-13 and Cox2 expression in presence of inhibitor (rat NP cells [1]; [8]): Reduced expression
- cytokine induced Cox2 expression in presence of inhibitor [2]: decreased expression

Molecule: C[S+]([O-])c1ccc(-c2nc(-c3ccncc3)c(-c3ccc(F)cc3)[nH]2)cc1 (stereo not drawn) [SB203580]
- MMP-3, MMP-13 and Cox2 expression in presence of inhibitor (rat NP cells [1]; IL-1β treated rat NP cells, Western blot, FIG. 2f): reduced expression
- cytokine induced Cox2 expression in presence of inhibitor [2]: decreased expression

Molecule: C[C@H](NC(=O)/C(C#N)=C/c1cccc(Br)n1)c1ccccc1 [STAT3 inhibitor]
- IL-1β and TNFα induced MMP-3, MMP-13 and Cox2 expression in presence of inhibitor (rat NP cells [1]; [8]): Reduced expression
- cytokine induced Cox2 expression in presence of inhibitor [2]: decreased expression

Molecule: N#CC(=C(/N)Sc1ccccc1N)/C(C#N)=C(\N)Sc1ccccc1N [U0126]
- IL-1β and TNFα induced MMP-3, MMP-13 and Cox2 expression in presence of inhibitor (rat NP cells [1]): failed to induce

Molecule: COC[C@H]1OC(=O)c2coc3c2[C@@]1(C)C1=C(C3=O)[C@@H]2CCC(=O)[C@@]2(C)C[C@H]1OC(C)=O [Wortamanin]
- IL-1β and TNFα induced MMP-3, MMP-13 and Cox2 expression in presence of inhibitor (rat NP cells [1]; [8]): reduced expression of MMP-3 and MMP-13 only

Molecule: IL1β: Human recombinant pro-inflammatory cytokine interleukin-1 beta, purchased from Peprotech, used at 10 ng/mL
- Fold regulation (IL1β vs NTC), gene Adamts8 (rat NP cells [3]): 139.39
- Fold regulation (IL1β vs NTC), gene Cd44 (rat NP cells [3]): 23.57
- Fold regulation (IL1β vs NTC), gene Cdh3 (rat NP cells [3]): −6.18
- Fold regulation (IL1β vs NTC), gene Col3a1 (rat NP cells [3]): −3.80
- Fold regulation (IL1β vs NTC), gene Col4a1 (rat NP cells [3]): 4.24
- Fold regulation (IL1β vs NTC), gene Col4a2 (rat NP cells [3]): 3.20
- Fold regulation (IL1β vs NTC), gene Ctgf (rat NP cells [3]): −2.40
- Fold regulation (IL1β vs NTC), gene Emilin1 (rat NP cells [3]): 4.42
- Fold regulation (IL1β vs NTC), gene Hapln1 (rat NP cells [3]): −6.01
- Fold regulation (IL1β vs NTC), gene Icam1 (rat NP cells [3]): 6.56
- Fold regulation (IL1β vs NTC), gene Itga3 (rat NP cells [3]): 9.22
- Fold regulation (IL1β vs NTC), gene Itga5 (rat NP cells [3]): 6.23
- Fold regulation (IL1β vs NTC), gene Itgav (rat NP cells [3]): 2.14
- Fold regulation (IL1β vs NTC), gene Lamc1 (rat NP cells [3]): 4.24
- Fold regulation (IL1β vs NTC), gene MMP3 (rat NP cells [3]): 68.04
- Fold regulation (IL1β vs NTC), gene MMP9 (rat NP cells [3]): 1252.77
- Fold regulation (IL1β vs NTC), gene MMP13 (rat NP cells [3]): 36.82
- Fold regulation (IL1β vs NTC), gene Mmp11 (rat NP cells [3]): −3.86
- Fold regulation (IL1β vs NTC), gene Ncam1 (rat NP cells [3]): −2.00
- Fold regulation (IL1β vs NTC), gene Thbs1 (rat NP cells [3]): −3.35
- Fold regulation (IL1β vs NTC), gene Thbs2 (rat NP cells [3]): −4.14
- Fold regulation (IL1β vs NTC), gene Timp1 (rat NP cells [3]): 5.04
- phosphorylation levels of c-Raf (S259), p42/44 (Thr202/Tyr204) and p38MAPK (Thr180/Tyr182) (rat NP cells [1]; rat NP cells, 5-60 minutes, no significant change in total protein): increased phosphorylation levels

B1: CTGF: Human recombinant connective tissue growth factor, Peprotech cat #120-19, identified in NCCM (protein, UniProt P29279 27-349, looked up)
CCN family member 2: QNCSGPCRCPDEPAPRCPAGVSLVLDGCGCCRVCAKQLGELCTERDPCDPHKGLFCHFGSPANRKIGVCTAKDGAPCIFGGTVYRSGESFQSSCKYQCTCLDGAVGCMPLCSMDVRLPSPDCPFPRRVKLPGKCCEEWVCDEPKDQTVVGPALAAYRLEDTFGPDPTMIRANCLVQTTEWSACSKTCGMGISTRVTNDNASCRLEKQSRLCMVRPCEADLEENIKKGKKCIRTPKISKPIKFELSGCTSMKTYRAKFCGVCTDGRCCTPHRTTTLPVEFKCPDGEVMKKNMMFIKTCACHYNCPGDNDIFESLYYRKMYGDMA
- expression of MMP-3, MMP-13 and Cox2 proteins in presence of growth factor (rat NP cells [1]; rat-tail NP cells treated with IL-1β and TNFα, Western blot, FIG. 5g-5h): reduced expression
- aggrecan and collagen II (immunohistochemical analysis) ([4]; intra-discal injection four weeks following injury, 10 weeks post-injury, vs vehicle control): strong expression
- histological analysis, Safranin-O staining of NP ([4]; intra-discal injection four weeks following injury, CTGF 100 ng/mL, TGFβ1 10 ng/mL, 10 weeks post-injury, vs PBS): healthy disc, rich in NCs
- expression of MMP-13 and Cox2 in NP tissue lysates [4, 9]: decreased expression
- stem cell marker Oct4 in NP tissue lysates [4, 9]: restoration
- cell viability (MTT) [5]: increased the viability
- cell viability (MTT) [6]: increased the viability
- IL-1β and TNFα induced caspase 9 activity [7]: significant reduction
